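Protocol summary: plate cells (96-well), add compound at 5 concentrations, incubate 48 h, interpolate endpoints linearly. The concentration for 50% growth inhibition is given as GI50.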 Activity calls are given as the source filed them. Rule as the data show it: active = GI50 up to about 1.1 µM and inactive = higher.
What was measured:
Test in all cases: NCI-60 cell line screen, 48 h
KM12 = system: KM12
HL-60 = system: HL-60
A549 = system: A549
LXFL 529 = system: LXFL 529
M19-MEL = system: M19-MEL
SN12C = system: SN12C
HCT-116 = system: HCT-116
SF-295 = system: SF-295
UACC-62 = system: UACC-62
DMS-114 = system: DMS-114
NCI-H23 = system: NCI-H23
TK-10 = system: TK-10
U-251 = system: U-251
SNB-19 = system: SNB-19
SF-539 = system: SF-539
HCT-15 = system: HCT-15

Compound | GI50 (KM12) | GI50 (HL-60) | GI50 (A549) | GI50 (LXFL 529) | GI50 (M19-MEL) | GI50 (SN12C) | GI50 (HCT-116) | GI50 (SF-295) | GI50 (UACC-62) | GI50 (DMS-114) | GI50 (NCI-H23) | GI50 (TK-10) | GI50 (U-251) | GI50 (SNB-19) | GI50 (SF-539) | GI50 (HCT-15) [µM]
O=C(CC1SC(Nc2ccccc2Cl)=NC1=O)Nc1ccc(Cl)cc1Cl (stereo not given) | > 100 µM (inactive) | > 100 µM (inactive) | > 100 µM (inactive) | > 100 µM (inactive) | > 100 µM (inactive) | > 100 µM (inactive) | > 100 µM (inactive) | > 100 µM (inactive) | > 100 µM (inactive) | 78.2 µM (inactive) | > 100 µM (inactive) | > 100 µM (inactive) | > 100 µM (inactive) | > 100 µM (inactive) | – | –
COc1ccc(C2N3CCCCC3[C@@H]3c4[nH]c5ccccc5c4CCN23)c(OC)c1 (stereo not given in full) | – | 18.2 µM (inactive) | 40.8 µM (inactive) | 21.8 µM (inactive) | 20 µM (inactive) | 18 µM (inactive) | 21.1 µM (inactive) | 42.3 µM (inactive) | 16.3 µM (inactive) | 18.7 µM (inactive) | 22.6 µM (inactive) | 25.2 µM (inactive) | 28.4 µM (inactive) | 39.4 µM (inactive) | 18.5 µM (inactive) | 28
Cc1c2ccncc2c(C)c2c1[nH]c1ccc(OC(C)C)cc12 | 1.35 µM (inactive) | 1.84 µM (inactive) | 1.52 µM (inactive) | 0.787 µM (active) | 1.71 µM (inactive) | 1.06 µM (active) | 0.736 µM (active) | 1.36 µM (inactive) | – | 1.49 µM (inactive) | 1.53 µM (inactive) | 1.91 µM (inactive) | 1.38 µM (inactive) | 1.59 µM (inactive) | 1.82 µM (inactive) | 0.984
COC(=O)C12CC3CC(C1)CC(C(=O)OC)(C3)C2 | > 100 µM (inactive) | 55.8 µM (inactive) | > 100 µM (inactive) | > 100 µM (inactive) | > 100 µM (inactive) | > 100 µM (inactive) | > 100 µM (inactive) | > 100 µM (inactive) | > 100 µM (inactive) | > 100 µM (inactive) | > 100 µM (inactive) | > 100 µM (inactive) | > 100 µM (inactive) | > 100 µM (inactive) | > 100 µM (inactive) | > 100
Cc1ccccc1C(=O)Oc1ccc(Oc2ccccc2)cc1 | > 100 µM (inactive) | 18.2 µM (inactive) | > 100 µM (inactive) | > 100 µM (inactive) | > 100 µM (inactive) | > 100 µM (inactive) | > 100 µM (inactive) | > 100 µM (inactive) | > 100 µM (inactive) | > 100 µM (inactive) | > 100 µM (inactive) | 78.2 µM (inactive) | > 100 µM (inactive) | > 100 µM (inactive) | > 100 µM (inactive) | > 100
O=C(N/N=C/c1ccccc1O)c1cccc([N+](=O)[O-])c1 | 29.6 µM (inactive) | 3.01 µM (inactive) | 31 µM (inactive) | 40.8 µM (inactive) | 12.9 µM (inactive) | 21.1 µM (inactive) | 22.5 µM (inactive) | 19.7 µM (inactive) | 20.7 µM (inactive) | 3.65 µM (inactive) | 16.5 µM (inactive) | 30.9 µM (inactive) | 26.2 µM (inactive) | > 58.9 µM (inactive) | 13.8 µM (inactive) | 6.59
Nc1cc2c3c(cccc3c1)C(=O)N(CCN1CCN(CCN3C(=O)c4cccc5cc(N)cc(c45)C3=O)CC1)C2=O | > 100 µM (inactive) | > 100 µM (inactive) | 46.3 µM (inactive) | 67 µM (inactive) | > 100 µM (inactive) | > 100 µM (inactive) | 67.6 µM (inactive) | 97.1 µM (inactive) | > 100 µM (inactive) | > 100 µM (inactive) | > 100 µM (inactive) | > 100 µM (inactive) | > 100 µM (inactive) | 76.2 µM (inactive) | > 100 µM (inactive) | > 100
CCCC1=C(CC)C(C(=O)Nc2c(C)cccc2C)=NC(S)N1 (stereo not given) | > 100 µM (inactive) | > 100 µM (inactive) | > 100 µM (inactive) | > 100 µM (inactive) | > 100 µM (inactive) | > 100 µM (inactive) | > 100 µM (inactive) | > 100 µM (inactive) | > 100 µM (inactive) | > 100 µM (inactive) | > 100 µM (inactive) | > 100 µM (inactive) | > 100 µM (inactive) | > 100 µM (inactive) | > 100 µM (inactive) | > 100
Nc1c(C(=O)NC23CC4CC(CC(C4)C2)C3)[n+]([O-])c2ccccc2[n+]1[O-] | > 100 µM (inactive) | > 100 µM (inactive) | > 100 µM (inactive) | > 100 µM (inactive) | > 100 µM (inactive) | > 100 µM (inactive) | – | > 100 µM (inactive) | > 100 µM (inactive) | – | > 100 µM (inactive) | > 100 µM (inactive) | > 100 µM (inactive) | > 100 µM (inactive) | > 100 µM (inactive) | > 100
Cc1ccc(Oc2ccc([N+](=O)[O-])cc2[N+](=O)[O-])c(C)c1 | > 10 µM (inactive) | 22.9 µM (inactive) | 34.1 µM (inactive) | 41 µM (inactive) | 51.3 µM (inactive) | 41.2 µM (inactive) | 30.3 µM (inactive) | 49.3 µM (inactive) | 45 µM (inactive) | 26.2 µM (inactive) | 28.7 µM (inactive) | 96.4 µM (inactive) | 34.8 µM (inactive) | – | 58.7 µM (inactive) | 35.1
CCOC(=O)Cc1nc2ccc3c(c2nc1O)C(=O)c1ccccc1C3=O | 14.7 µM (inactive) | – | 34.4 µM (inactive) | 47.9 µM (inactive) | 78.2 µM (inactive) | 23.7 µM (inactive) | 31.5 µM (inactive) | – | 34.5 µM (inactive) | 20.5 µM (inactive) | 40.2 µM (inactive) | 31.7 µM (inactive) | 48.4 µM (inactive) | > 100 µM (inactive) | 76.4 µM (inactive) | 25.2
COc1ccc(-c2cc(=O)c3c(O)c(OC)c(O)c(OC)c3o2)cc1OC | – | 41.3 µM (inactive) | 72.1 µM (inactive) | 61.1 µM (inactive) | > 100 µM (inactive) | 43.4 µM (inactive) | 57 µM (inactive) | > 100 µM (inactive) | 47.4 µM (inactive) | > 100 µM (inactive) | > 100 µM (inactive) | – | 49.9 µM (inactive) | > 100 µM (inactive) | 46.2 µM (inactive) | 63.7
CN(C)CC1CCCCCCCCCCCCC(CN(C)C)C1=O (stereo not given) | 11.1 µM (inactive) | – | 15.5 µM (inactive) | 14.9 µM (inactive) | 12.6 µM (inactive) | 15.2 µM (inactive) | 4.54 µM (inactive) | 15.8 µM (inactive) | 13.3 µM (inactive) | 16.9 µM (inactive) | 17.7 µM (inactive) | 14.7 µM (inactive) | 14.3 µM (inactive) | 17.5 µM (inactive) | 15.2 µM (inactive) | 18.7
O=C1OC(c2ccccc2)=N/C1=C\c1cc(Cl)ccc1Cl | 74.1 µM (inactive) | 6.64 µM (inactive) | > 100 µM (inactive) | 28.5 µM (inactive) | > 100 µM (inactive) | 80.2 µM (inactive) | 10.3 µM (inactive) | > 100 µM (inactive) | > 100 µM (inactive) | 49.8 µM (inactive) | > 100 µM (inactive) | – | 70.8 µM (inactive) | > 100 µM (inactive) | 72.4 µM (inactive) | 16.4
Cc1ccc(S(=O)(=O)NC(=O)C2(Br)S(=O)(=O)OCCOS2(=O)=O)cc1 | – | > 100 µM (inactive) | > 100 µM (inactive) | > 100 µM (inactive) | > 100 µM (inactive) | > 100 µM (inactive) | > 100 µM (inactive) | – | > 100 µM (inactive) | > 100 µM (inactive) | > 100 µM (inactive) | > 100 µM (inactive) | > 100 µM (inactive) | > 100 µM (inactive) | > 100 µM (inactive) | > 100
COC(=O)C(=O)C(C(=O)C(=O)Nc1ccccc1C(N)=O)c1nc2ccc([N+](=O)[O-])cc2nc1O (stereo not given) | > 100 µM (inactive) | > 100 µM (inactive) | > 100 µM (inactive) | > 100 µM (inactive) | > 100 µM (inactive) | > 100 µM (inactive) | > 100 µM (inactive) | > 100 µM (inactive) | > 100 µM (inactive) | – | > 100 µM (inactive) | > 100 µM (inactive) | > 100 µM (inactive) | > 100 µM (inactive) | > 100 µM (inactive) | > 100
Cc1cnc[nH]c1=O | > 100 µM (inactive) | > 100 µM (inactive) | > 100 µM (inactive) | > 100 µM (inactive) | > 100 µM (inactive) | > 100 µM (inactive) | > 100 µM (inactive) | > 100 µM (inactive) | > 100 µM (inactive) | > 100 µM (inactive) | > 100 µM (inactive) | > 100 µM (inactive) | > 100 µM (inactive) | > 100 µM (inactive) | – | > 100
C=CCn1cc(C(=O)NC(=O)NCCCCCOC(=O)CCCCCCCCCCC(=O)OCCCCCNC(=O)NC(=O)c2cn(CC=C)c(=O)n(C)c2=O)c(=O)n(C)c1=O | > 100 µM (inactive) | > 100 µM (inactive) | > 100 µM (inactive) | > 100 µM (inactive) | > 100 µM (inactive) | > 100 µM (inactive) | > 100 µM (inactive) | – | > 100 µM (inactive) | > 100 µM (inactive) | > 100 µM (inactive) | > 100 µM (inactive) | > 100 µM (inactive) | > 100 µM (inactive) | > 100 µM (inactive) | > 100
